Assay results: US20250282816A1, “THIOSTREPTON COMPOSITIONS AND PREPARATION THEREOF” (RS Oncology, LLC, priority 2021, published 2025)

How the values were obtained:
[1] = tested on: ovarian cancer cell line SKOV3; experiment: cell viability assay, crystal violet cell staining; type: cell-based; conditions: 48 hours treatment
Procedure: Commercial thiostrepton (TS) starting material (TS Non-GMP) and ultrapure TS (TS GMP) were diluted to 10 mM in sterile DMSO. Lots of TS were evaluated in a cell viability assay using the ovarian cancer cell line SKOV3 purchased from ATCC. Two replicate plates containing technical duplicates were set up for screening. Cells were plated at a density of 2,500 cells/well in 96-well plates and allowed to adhere for 24 hours prior to treatment. A starting concentration of 20 μM for each TS solution was serial diluted 1:1 covering a concentration range of 20 μM to 20 nM. Cells were incubated with treatments for 48 hours prior to fixation with 3% formaldehyde and crystal violet cell staining to determine residual cells remaining (100%=no cell death, 0%=complete cell death). FIG. 4. EC50 values (the concentration required to kill 50% of cells) were determined using a variable slope least square fit non-linear regression. FIG. 5.

[2] = Antibiotics-Microbial assay, USP <81>; type: cell-based; conditions: final product of the 2 kg scale cGMP process (GMP DS Lot 1); specification ≥900 IU/mg
Source text: Materials and Methods. […] Identification by IR spectrum, USP <197K> • 2. Antibiotics-Microbial assay, USP <81>

Compound: C=C(NC(=O)C(=C)NC(=O)c1csc(C2=N[C@@H]3c4csc(n4)[C@H]4NC(=O)c5csc(n5)[C@H]([C@](C)(O)[C@@H](C)O)NC(=O)[C@H]5CSC(=N5)/C(=C/C)NC(=O)[C@H]([C@@H](C)O)NC(=O)c5csc(n5)[C@]3(CC2)NC(=O)[C@H](C)NC(=O)C(=C)NC(=O)[C@H](C)NC(=O)[C@H]([C@@H](C)CC)N[C@@H]2C=Cc3c([C@H](C)O)cc(nc3[C@H]2O)C(=O)O[C@@H]4C)n1)C(N)=O [ultrapure TS, thiostrepton]
- biological activity as measured by % cell death of cancer cells, compared with commercial TS ([1]; 20 μM to 20 nM, N=4 replicates (FIG. 4)): better biological activity
- biological activity as measured by EC50 (the concentration required to kill 50% of cells), compared with commercial TS ([1]; variable slope non-linear regression, N=4 replicates, p<0.0001 (FIG. 5)): better biological activity
- Antibiotics-Microbial assay [2]: 988 IU/mg
